These results are taken from ChEMBL document CHEMBL1122843, “Opioid receptor interactions and conformations of the 6 alpha and 6 beta epimers of oxymorphamine. Solid-state conformation of 6 alpha-oxymorphamine” (J Med Chem, 1985).

In experiment [1] the target is Delta-type opioid receptor (Rattus norvegicus, UniProt P33533). Kind of experiment: Compound was evaluated for binding affinity against Opioid receptor delta 1 in rat brain membranes using [125I]-D-Ala2-Leu5-enkephalin. Particulars: read-out: I50. In kind it is cell membranes.
A further experiment has as its target Mu-type opioid receptor (Rattus norvegicus, UniProt P33535). Kind of experiment: Compound was evaluated for binding affinity against Opioid receptor mu 1 in rat brain membranes using [125I]-Tyr-D-Ala-Gly-NMePhe-Met. Format: cell membranes. Particulars: read-out: I50.

Sequence of Delta-type opioid receptor (P33533 whole entry): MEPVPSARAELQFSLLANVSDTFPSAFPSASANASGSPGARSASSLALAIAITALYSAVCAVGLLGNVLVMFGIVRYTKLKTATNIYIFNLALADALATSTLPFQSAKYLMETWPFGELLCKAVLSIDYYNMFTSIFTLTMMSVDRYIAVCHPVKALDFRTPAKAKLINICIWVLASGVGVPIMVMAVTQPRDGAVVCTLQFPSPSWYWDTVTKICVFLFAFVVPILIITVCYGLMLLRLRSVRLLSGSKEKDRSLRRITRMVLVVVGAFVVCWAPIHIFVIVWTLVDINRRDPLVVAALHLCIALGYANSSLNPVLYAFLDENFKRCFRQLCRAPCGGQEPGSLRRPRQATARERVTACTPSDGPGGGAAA
Sequence of Mu-type opioid receptor (P33535 whole entry): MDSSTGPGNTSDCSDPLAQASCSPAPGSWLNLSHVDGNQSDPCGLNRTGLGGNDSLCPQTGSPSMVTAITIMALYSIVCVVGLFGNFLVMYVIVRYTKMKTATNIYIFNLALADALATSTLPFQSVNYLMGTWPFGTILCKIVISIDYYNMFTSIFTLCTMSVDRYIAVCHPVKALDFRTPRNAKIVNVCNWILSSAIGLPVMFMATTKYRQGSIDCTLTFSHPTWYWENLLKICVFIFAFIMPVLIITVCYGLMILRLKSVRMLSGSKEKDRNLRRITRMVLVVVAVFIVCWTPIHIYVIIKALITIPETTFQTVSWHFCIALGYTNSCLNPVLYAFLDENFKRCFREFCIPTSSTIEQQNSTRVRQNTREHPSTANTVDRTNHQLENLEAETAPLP

On to `CN1CC[C@]23c4c5ccc(O)c4O[C@H]2[C@@H](N)CC[C@@]3(O)[C@H]1C5`, for which the IC50 in experiment [1] was found to be 250 nM; at Mu-type opioid receptor it was 13 nM.

Regarding `CN1CC[C@]23c4c5ccc(O)c4O[C@H]2[C@H](N)CC[C@@]3(O)[C@H]1C5`, the IC50 turned out to be 110 nM in experiment [1] and 9 nM on Mu-type opioid receptor.
